Counter-ions that a name gives are not always drawn. Like-named read-outs stand apart in the source and are kept apart here.
System: HIV-1 strain 92HT599
Test: Antiviral activity, p24 estimation in HIV-1 92HT599 infected MT2 cells
Type: cell-based
Details: ~96 hours
Procedure: MT2 cells were infected with HIV-1 strain 92HT599 (10 TCID 50/30000 cells). The infected cells were plated at the concentration of ˜30,000 cells per well in 96 well plate. Test compound was added to the micro plate in defined format with the final concentration of DMSO (vehicle) is not more than 1%. Incubation was carried out in CO2 incubator for ˜96 hours for viral infection. At the end of incubation period an aliquot from each well was taken for p24 estimation. The quantitation of p24 is an index for antiviral activity of the compound. Percent inhibition was calculated with reference to control values (vehicle controls). P-24 estimation was carried out using Advance biosciences kit as per the procedure detailed by supplier.

[1] = Human immunodeficiency virus 1, 0% serum, read-out: 92HT599-Antiviral activity IC50 (nM) 0%
[2] = Human immunodeficiency virus 1, 40% serum, read-out: 92HT599-Antiviral activity IC50 (nM) 40%

| SMILES | IC50 [1] [nM] | IC50 [2] [nM] |
| --- | --- | --- |
| CC(C)C1=C2[C@H]3CC[C@@H]4[C@@]5(C)CC[C@H](OC(=O)[C@H]6C[C@@H](C(=O)O)C6(C)C)C(C)(C)[C@@H]5CC[C@@]4(C)[C@]3(C)CC[C@@]2(NC(=O)N(CCN(C)C)Cc2ccc(Cl)cc2)CC1=O [Example 1, (1R,3S)-3-((((3aR,5aR,5bR,7aR,9S,11aR,11bR,13aS)-3a-(3-(4-chlorobenzyl)-3-(2-(dimethylamino)ethyl)ureido)-1-isopropyl-5a,5b,8,8,11a-pentamethyl-2-oxo-3,3a,4,5,5a,5b,6,7,7a,8,9,10,11,11a,11b,12,13,13a-octadecahydro-2H-cyclopenta[a]chrysen-9-yl)oxy)carbonyl)-2,2-dimethylcyclobutane-1-carboxylic acid hydrochloride] | < 5 | > 50 |
| CC(C)C1=C2[C@H]3CC[C@@H]4[C@@]5(C)CC[C@H](OC(=O)[C@H]6C[C@@H](C(=O)O)C6(C)C)C(C)(C)[C@@H]5CC[C@@]4(C)[C@]3(C)CC[C@@]2(NC(=O)N2CCC[C@H]2c2ncc(-c3ccccc3)n2CCN(C)C)CC1=O [Example 2, (1R,3S)-3-((((3aR,5aR,5bR,7aR,9S,11aR,11bR,13aS)-3a-((S)-2-(1-(2-(dimethylamino)ethyl)-5-phenyl-1H-imidazol-2-yl)pyrrolidine-1-carboxamido)-1-isopropyl-5a,5b,8,8,11a-pentamethyl-2-oxo-3,3a,4,5,5a,5b,6,7,7a,8,9,10,11,11a,11b,12,13,13a-octadecahydro-2H-cyclopenta[a]chrysen-9-yl)oxy)carbonyl)-2,2-dimethylcyclobutane-1-carboxylic acid] | < 5 | < 30 |
| CC(C)C1=C2[C@H]3CC[C@@H]4[C@@]5(C)CC[C@H](OC(=O)[C@H]6C[C@@H](C(=O)O)C6(C)C)C(C)(C)[C@@H]5CC[C@@]4(C)[C@]3(C)CC[C@@]2(NC(=O)N2CCC[C@H]2c2ncc(-c3ccccc3)[nH]2)CC1=O [Example 3, (1R,3S)-3-((((3aR,5aR,5bR,7aR,9S,11aR,11bR,13aS)-1-isopropyl-5a,5b,8,8,11a-pentamethyl-2-oxo-3a-((S)-2-(5-phenyl-1H-imidazol-2-yl)pyrrolidine-1-carboxamido)-3,3a,4,5,5a,5b,6,7,7a,8,9,10,11,11a,11b,12,13,13a-octadecahydro-2H-cyclopenta[a]chrysen-9-yl)oxy)carbonyl)-2,2-dimethylcyclobutane-1-carboxylic acid] | 5.01 to 10 | 30 to 50 |
| CC(C)C1=C2[C@H]3CC[C@@H]4[C@@]5(C)CC[C@H](OC(=O)[C@H]6C[C@@H](C(=O)O)C6(C)C)C(C)(C)[C@@H]5CC[C@@]4(C)[C@]3(C)CC[C@@]2(NC(=O)NC2(c3ccc(Cl)cc3)CC2)CC1=O [Example 4, (1R,3S)-3-((((3aR,5aR,5bR,7aR,9S,11aR,11bR,13aS)-3a-(3-(1-(4-chlorophenyl)cyclopropyl)ureido)-1-isopropyl-5a,5b,8,8,11a-pentamethyl-2-oxo-3,3a,4,5,5a,5b,6,7,7a,8,9,10,11,11a,11b,12,13,13a-octadecahydro-2H-cyclopenta[a]chrysen-9-yl)oxy)carbonyl)-2,2-dimethylcyclobutane-1-carboxylic acid] | < 5 | > 50 |
| CC(C)C1=C2[C@H]3CC[C@@H]4[C@@]5(C)CC[C@H](OC(=O)[C@H]6C[C@@H](C(=O)O)C6(C)C)C(C)(C)[C@@H]5CC[C@@]4(C)[C@]3(C)CC[C@@]2(NC(=O)NC(C)(C)c2ccc(Cl)cc2)CC1=O [Example 5, (1R,3S)-3-((((3aR,5aR,5bR,7aR,9S,11aR,11bR,13aS)-3a-(3-(2-(4-chlorophenyl)propan-2-yl)ureido)-1-isopropyl-5a,5b,8,8,11a-pentamethyl-2-oxo-3,3a,4,5,5a,5b,6,7,7a,8,9,10,11,11a,11b,12,13,13a-octadecahydro-2H-cyclopenta[a]chrysen-9-yl)oxy)carbonyl)-2,2-dimethylcyclobutane-1-carboxylic acid] | < 5 | < 30 |
| CC(C)C1=C2[C@H]3CC[C@@H]4[C@@]5(C)CC[C@H](OC(=O)[C@H]6C[C@@H](C(=O)O)C6(C)C)C(C)(C)[C@@H]5CC[C@@]4(C)[C@]3(C)CC[C@@]2(NC(=O)N(CCN(C)C)CC2(c3ccc(Cl)cc3)CC2)CC1=O [Example 6, (1R,3S)-3-((((3aR,5aR,5bR,7aR,9S,11aR,11bR,13aS)-3a-(3-((1-(4-chlorophenyl)cyclopropyl)methyl)-3-(2-(dimethylamino)ethyl)ureido)-1-isopropyl-5a,5b,8,8,11a-pentamethyl-2-oxo-3,3a,4,5,5a,5b,6,7,7a,8,9,10,11,11a,11b,12,13,13a-octadecahydro-2H-cyclopenta[a]chrysen-9-yl)oxy)carbonyl)-2,2-dimethylcyclobutane-1-carboxylic acid] | < 5 | 30 to 50 |
| CC(C)C1=C2[C@H]3CC[C@@H]4[C@@]5(C)CC[C@H](OC(=O)[C@H]6C[C@@H](C(=O)O)C6(C)C)C(C)(C)[C@@H]5CC[C@@]4(C)[C@]3(C)CC[C@@]2(NC(=O)NCc2ccc(Cl)cc2)CC1=O [Example 7, (1R,3S)-3-((((3aR,5aR,5bR,7aR,9S,11aR,11bR,13aS)-3a-(3-(4-chlorobenzyl)ureido)-1-isopropyl-5a,5b,8,8,11a-pentamethyl-2-oxo-3,3a,4,5,5a,5b,6,7,7a,8,9,10,11,11a,11b,12,13,13a-octadecahydro-2H-cyclopenta[a]chrysen-9-yl)oxy)carbonyl)-2,2-dimethylcyclobutane-1-carboxylic acid] | 5.01 to 10 | 30 to 50 |
| Cc1nnc(C(C)C)n1C1CC2CCC(C1)N2C(=O)N[C@@]12CC[C@]3(C)[C@H](CC[C@@H]4[C@@]5(C)CC[C@H](OC(=O)[C@H]6C[C@@H](C(=O)O)C6(C)C)C(C)(C)[C@@H]5CC[C@]43C)C1=C(C(C)C)C(=O)C2 (stereo partly drawn) [Example 8, (1R,3S)-3-((((3aR,5aR,5bR,7aR,9S,11aR,11bR,13aS)-1-isopropyl-3a-((1R,3S,5S)-3-(3-isopropyl-5-methyl-4H-1,2,4-triazol-4-yl)-8-azabicyclo[3.2.1]octane-8-carboxamido)-5a,5b,8,8,11a-pentamethyl-2-oxo-3,3a,4,5,5a,5b,6,7,7a,8,9,10,11,11a,11b,12,13,13a-octadecahydro-2H-cyclopenta[a]chrysen-9-yl)oxy)carbonyl)-2,2-dimethylcyclobutane-1-carboxylic acid] | 5.01 to 10 | > 50 |
| CC(C)C1=C2[C@H]3CC[C@@H]4[C@@]5(C)CC[C@H](OC(=O)[C@H]6C[C@@H](C(=O)O)C6(C)C)C(C)(C)[C@@H]5CC[C@@]4(C)[C@]3(C)CC[C@@]2(NC(=O)NC(C)(C)c2ncc(-c3ccccc3)[nH]2)CC1=O [Example 10, (1R,3S)-3-((((3aR,5aR,5bR,7aR,9S,11aR,11bR,13aS)-1-isopropyl-5a,5b,8,8,11a-pentamethyl-2-oxo-3a-(3-(2-(5-phenyl-1H-imidazol-2-yl)propan-2-yl)ureido)-3,3a,4,5,5a,5b,6,7,7a,8,9,10,11,11a,11b,12,13,13a-octadecahydro-2H-cyclopenta[a]chrysen-9-yl)oxy)carbonyl)-2,2-dimethylcyclobutane-1-carboxylic acid] | < 5 | < 30 |
| CC(C)C1=C2[C@H]3CC[C@@H]4[C@@]5(C)CC[C@H](OC(=O)[C@H]6C[C@@H](C(=O)O)C6(C)C)C(C)(C)[C@@H]5CC[C@@]4(C)[C@]3(C)CC[C@@]2(NC(=O)N(CCN2CCCCC2)Cc2ccc(Cl)cc2)CC1=O [Example 11, (1R,3S)-3-((((3aR,5aR,5bR,7aR,9S,11aR,11bR,13aS)-3a-(3-(4-chlorobenzyl)-3-(2-(piperidin-1-yl)ethyl)ureido)-1-isopropyl-5a,5b,8,8,11a-pentamethyl-2-oxo-3,3a,4,5,5a,5b,6,7,7a,8,9,10,11,11a,11b,12,13,13a-octadecahydro-2H-cyclopenta[a]chrysen-9-yl)oxy)carbonyl)-2,2-dimethylcyclobutane-1-carboxylic acid hydrochloride] | < 5 | 30 to 50 |
| Cc1nnc(C(C)C)n1CCN1CCN(C(=O)N[C@@]23CC[C@]4(C)[C@H](CC[C@@H]5[C@@]6(C)CC[C@H](OC(=O)[C@H]7C[C@@H](C(=O)O)C7(C)C)C(C)(C)[C@@H]6CC[C@]54C)C2=C(C(C)C)C(=O)C3)CC1 [Example 12, (1R,3S)-3-((((3aR,5aR,5bR,7aR,9S,11aR,11bR,13aS)-1-isopropyl-3a-(4-(2-(3-isopropyl-5-methyl-4H-1,2,4-triazol-4-yl)ethyl)piperazine-1-carboxamido)-5a,5b,8,8,11a-pentamethyl-2-oxo-3,3a,4,5,5a,5b,6,7,7a,8,9,10,11,11a,11b,12,13,13a-octadecahydro-2H-cyclopenta[a]chrysen-9-yl)oxy)carbonyl)-2,2-dimethycyclobutane-1-carboxylic acid] | > 10 | > 50 |
| CC(C)C1=C2[C@H]3CC[C@@H]4[C@@]5(C)CC[C@H](OC(=O)[C@H]6C[C@@H](C(=O)O)C6(C)C)C(C)(C)[C@@H]5CC[C@@]4(C)[C@]3(C)CC[C@@]2(NC(=O)N2CCC[C@H]2CN2CCCC2)CC1=O [Example 13, (1R,3S)-3-((((3aR,5aR,5bR,7aR,9S,11aR,11bR,13aS)-1-isopropyl-5a,5b,8,8,11a-pentamethyl-2-oxo-3a-((S)-2-(pyrrolidin-1-ylmethyl)pyrrolidine-1-carboxamido)-3,3a,4,5,5a,5b,6,7,7a,8,9,10,11,11a,11b,12,13,13a-octadecahydro-2H-cyclopenta[a]chrysen-9-yl)oxy)carbonyl)-2,2-dimethylcyclobutane-1-carboxylic acid] | < 5 | > 50 |
